Reference: US20090016990A1, “Antimicrobial Compositions” (priority 2007, published 2009)

Legend:
[1] = test system: Pseudomonas aeruginosa ATCC 27853; assay: MBEC assay, biofilm elimination, MBEC bioFILM PA panel; assay type: cell-based; parameters: MBEC-Biofilm Elimination, Without compound 2 / MBEC-Biofilm Elimination, With 0.01% compound 2 in 5% EtOH/PBS / MBEC-Biofilm Elimination, Without compound 7 / MBEC-Biofilm Elimination, With 0.01% compound 7 in 5% EtOH/PBS / MBEC-Biofilm Elimination, Without compound 1 / MBEC-Biofilm Elimination, With 0.01% compound 1 in 5% EtOH/PBS / MBEC-Biofilm Elimination, without salt of compound 2 / MBEC-Biofilm Elimination, with 0.1% salt of compound 2: unit not given here; conditions: for MBEC-Biofilm Elimination, without salt of compound 2 / MBEC-Biofilm Elimination, with 0.1% salt of compound 2: Table 9; for MBEC-Biofilm Elimination, without salt of compound 2 / MBEC-Biofilm Elimination, without salt of compound 6: antibiotic or antibiotic combination alone; for MBEC-Biofilm Elimination, without salt of compound 2 / MBEC-Biofilm Elimination, with 0.1% salt of compound 2 / MBEC-Biofilm Elimination, without salt of compound 6 / MBEC-Biofilm Elimination, with 0.1% salt of compound 6: value per component; for MBEC-Biofilm Elimination, with 0.1% salt of compound 2: antibiotic or combination plus 0.1% salt of compound 2; for MBEC-Biofilm Elimination, without salt of compound 6 / MBEC-Biofilm Elimination, with 0.1% salt of compound 6: Table 10; for MBEC-Biofilm Elimination, with 0.1% salt of compound 6: antibiotic or combination plus 0.1% salt of compound 6; for MBEC-Biofilm Elimination, Without compound 1 / MBEC-Biofilm Elimination, Without compound 2 / MBEC-Biofilm Elimination, Without compound 3 / MBEC-Biofilm Elimination, Without compound 6 / MBEC-Biofilm Elimination, Without compound 7 / MBEC-Biofilm Elimination, Without compound 9: antibiotic alone
[2] = test system: Pseudomonas aeruginosa ATCC 27853; assay: MBEC assay, biofilm inhibition (prevention of biofilm formation), MBEC bioFILM PA panel; assay type: cell-based; parameters: MBEC-Biofilm Inhibition, Without compound 9 / MBEC-Biofilm Inhibition, Without compound 6 / MBEC-Biofilm Inhibition, Without compound 2 / MBEC-Biofilm Inhibition, Without compound 7 / MBEC-Biofilm Inhibition, With 0.01% compound 7 in 5% EtOH/PBS / MBEC-Biofilm Inhibition, without salt of compound 2 / MBEC-Biofilm Inhibition, with 0.1% salt of compound 2 / MBEC-Biofilm Inhibition, without salt of compound 6: unit not given here; conditions: for MBEC-Biofilm Inhibition, without salt of compound 2 / MBEC-Biofilm Inhibition, with 0.1% salt of compound 2: Table 9; for MBEC-Biofilm Inhibition, without salt of compound 2 / MBEC-Biofilm Inhibition, without salt of compound 6: antibiotic or antibiotic combination alone; for MBEC-Biofilm Inhibition, without salt of compound 2 / MBEC-Biofilm Inhibition, with 0.1% salt of compound 2 / MBEC-Biofilm Inhibition, without salt of compound 6 / MBEC-Biofilm Inhibition, with 0.1% salt of compound 6: value per component; for MBEC-Biofilm Inhibition, without salt of compound 2: separated by /; for MBEC-Biofilm Inhibition, with 0.1% salt of compound 2: antibiotic or combination plus 0.1% salt of compound 2; for MBEC-Biofilm Inhibition, without salt of compound 6 / MBEC-Biofilm Inhibition, with 0.1% salt of compound 6: Table 10; for MBEC-Biofilm Inhibition, with 0.1% salt of compound 6: antibiotic or combination plus 0.1% salt of compound 6; for MBEC-Biofilm Inhibition, Without compound 1 / MBEC-Biofilm Inhibition, Without compound 2 / MBEC-Biofilm Inhibition, Without compound 3 / MBEC-Biofilm Inhibition, Without compound 6 / MBEC-Biofilm Inhibition, Without compound 7 / MBEC-Biofilm Inhibition, Without compound 9: antibiotic alone
[3] = with 0.01% compound 2 in 5% EtOH/PBS

| SMILES | MBEC-Biofilm Elimination, without salt of compound 2 [1] | MBEC-Biofilm Elimination, with 0.1% salt of compound 2 [1] | MBEC-Biofilm Elimination, without salt of compound 6 [1] | MBEC-Biofilm Elimination, with 0.1% salt of compound 6 [1] | MBEC-Biofilm Elimination, Without compound 1 [1] | MBEC-Biofilm Elimination, Without compound 2 [1] | MBEC-Biofilm Elimination, Without compound 3 [1] | MBEC-Biofilm Elimination, Without compound 6 [1] | MBEC-Biofilm Elimination, Without compound 7 [1] | MBEC-Biofilm Elimination, Without compound 9 [1] | MBEC-Biofilm Elimination, With 0.01% compound 1 in 5% EtOH/PBS [1] | MBEC-Biofilm Elimination, With 0.01% compound 2 in 5% EtOH/PBS [1] | MBEC-Biofilm Elimination, With 0.01% compound 7 in 5% EtOH/PBS [1] | MBEC-Biofilm Elimination, With 0.05% compound 3 in 5% EtOH/PBS [1] | MBEC-Biofilm Elimination, With 0.05% compound 6 in 5% EtOH/PBS [1] | MBEC-Biofilm Elimination, With 0.1% w/v compound 9 in PBS [1] | MBEC-Biofilm Inhibition, without salt of compound 2 [2] | MBEC-Biofilm Inhibition, with 0.1% salt of compound 2 [2] | MBEC-Biofilm Inhibition, without salt of compound 6 [2] | MBEC-Biofilm Inhibition, with 0.1% salt of compound 6 [2] | also measured |
| --- | --- | --- | --- | --- | --- | --- | --- | --- | --- | --- | --- | --- | --- | --- | --- | --- | --- | --- | --- | --- | --- |
| NCC[C@H](O)C(=O)N[C@@H]1C[C@H](N)[C@@H](O[C@H]2O[C@H](CN)[C@@H](O)[C@H](O)[C@H]2O)[C@H](O)[C@H]1O[C@H]1O[C@H](CO)[C@@H](O)[C@H](N)[C@H]1O [AK, amikacin] | >8 | 8 | >8 | 8 | >8 | >8 | >8 | >8 | >8 | >8 | >8 | 8 | 8 | >8 | >8 | >8 | >8 | >8 | >8 | >8 | MBEC-Biofilm Inhibition, Without compound 1 [2]: >8; MBEC-Biofilm Inhibition, Without compound 2 [2]: >8; MBEC-Biofilm Inhibition, Without compound 3 [2]: >8; MBEC-Biofilm Inhibition, Without compound 6 [2]: >8; MBEC-Biofilm Inhibition, Without compound 7 [2]: >8; MBEC-Biofilm Inhibition, Without compound 9 [2]: >8; MBEC ([2]; antibiotic or combination alone, concentrations in order of the combination): >8 µg/mL; MBEC, μg/mL +Compound 1 ([2]; antibiotic plus Compound 1): >8 µg/mL; MBEC, μg/mL +Compound 2 ([2]; antibiotic plus Compound 2): >8 µg/mL; MBEC, μg/mL +Compound 7 ([2]; antibiotic plus Compound 7): 2 to 8 µg/mL; (% reduction) +Compound 7 ([2]; reduction of antibiotic or combination required to prevent biofilm formation): > 50%; MBEC-Biofilm Inhibition, With 0.01% compound 1 in 5% EtOH/PBS [2]: >8; MBEC-Biofilm Inhibition, With 0.01% compound 2 in 5% EtOH/PBS [2, 3]: 2-8; value in parentheses after MBEC-Biofilm Inhibition with 0.01% compound 2 (% reduction as in Table 2) [2, 3]: ≥ 50; MBEC-Biofilm Inhibition, With 0.01% compound 7 in 5% EtOH/PBS [2]: >8; MBEC-Biofilm Inhibition, With 0.05% compound 3 in 5% EtOH/PBS [2]: >8; MBEC-Biofilm Inhibition, With 0.05% compound 6 in 5% EtOH/PBS [2]: >8; MBEC-Biofilm Inhibition, With 0.1% w/v compound 9 in PBS [2]: >8 |
| C[C@H]1[C@H](NC(=O)/C(=N\OC(C)(C)C(=O)O)c2csc(N)n2)C(=O)N1S(=O)(=O)O [AZT, astreonam] | >4 | >4 | >4 | >4 | >4 | >4 | >4 | >4 | >4 | >4 | >4 | >4 | >4 | >4 | >4 | >4 | >4 | >4 | >4 | >4 | MBEC-Biofilm Inhibition, Without compound 1 [2]: >4; MBEC-Biofilm Inhibition, Without compound 2 [2]: >4; MBEC-Biofilm Inhibition, Without compound 3 [2]: >4; MBEC-Biofilm Inhibition, Without compound 6 [2]: >4; MBEC-Biofilm Inhibition, Without compound 7 [2]: >4; MBEC-Biofilm Inhibition, Without compound 9 [2]: >4; MBEC-Biofilm Inhibition, With 0.01% compound 1 in 5% EtOH/PBS [2]: >4; MBEC-Biofilm Inhibition, With 0.01% compound 2 in 5% EtOH/PBS [2, 3]: >4; MBEC-Biofilm Inhibition, With 0.01% compound 7 in 5% EtOH/PBS [2]: >4; MBEC-Biofilm Inhibition, With 0.05% compound 3 in 5% EtOH/PBS [2]: >4; MBEC-Biofilm Inhibition, With 0.05% compound 6 in 5% EtOH/PBS [2]: >4; MBEC-Biofilm Inhibition, With 0.1% w/v compound 9 in PBS [2]: >4 |
| O=C(N[C@H](CO)[C@H](O)c1ccc([N+](=O)[O-])cc1)C(Cl)Cl [C, chloramphenicol] | >4 | >4 | >4 | >4 | >4 | >4 | >4 | >4 | >4 | >4 | >4 | >4 | >4 | >4 | >4 | >4 | >4 | >4 | >4 | >4 | MBEC-Biofilm Inhibition, Without compound 1 [2]: >4; MBEC-Biofilm Inhibition, Without compound 2 [2]: >4; MBEC-Biofilm Inhibition, Without compound 3 [2]: >4; MBEC-Biofilm Inhibition, Without compound 6 [2]: >4; MBEC-Biofilm Inhibition, Without compound 7 [2]: >4; MBEC-Biofilm Inhibition, Without compound 9 [2]: >4; MBEC-Biofilm Inhibition, With 0.01% compound 1 in 5% EtOH/PBS [2]: >4; MBEC-Biofilm Inhibition, With 0.01% compound 2 in 5% EtOH/PBS [2, 3]: >4; MBEC-Biofilm Inhibition, With 0.01% compound 7 in 5% EtOH/PBS [2]: >4; MBEC-Biofilm Inhibition, With 0.05% compound 3 in 5% EtOH/PBS [2]: >4; MBEC-Biofilm Inhibition, With 0.05% compound 6 in 5% EtOH/PBS [2]: >4; MBEC-Biofilm Inhibition, With 0.1% w/v compound 9 in PBS [2]: >4 |
| CC(C)(O/N=C(\C(=O)N[C@@H]1C(=O)N2C(C(=O)[O-])=C(C[n+]3ccccc3)CS[C@H]12)c1csc(N)n1)C(=O)O [CAZ, ceftazidime] | >4 | >4 | >4 | >4 | >4 | >4 | >4 | >4 | >4 | >4 | >4 | >4 | >4 | >4 | >4 | >4 | >4 | >4 | >4 | >4 | MBEC-Biofilm Inhibition, Without compound 1 [2]: >4; MBEC-Biofilm Inhibition, Without compound 2 [2]: >4; MBEC-Biofilm Inhibition, Without compound 3 [2]: >4; MBEC-Biofilm Inhibition, Without compound 6 [2]: >4; MBEC-Biofilm Inhibition, Without compound 7 [2]: >4; MBEC-Biofilm Inhibition, Without compound 9 [2]: >4; MBEC-Biofilm Inhibition, With 0.01% compound 1 in 5% EtOH/PBS [2]: >4; MBEC-Biofilm Inhibition, With 0.01% compound 2 in 5% EtOH/PBS [2, 3]: >4; MBEC-Biofilm Inhibition, With 0.01% compound 7 in 5% EtOH/PBS [2]: >4; MBEC-Biofilm Inhibition, With 0.05% compound 3 in 5% EtOH/PBS [2]: >4; MBEC-Biofilm Inhibition, With 0.05% compound 6 in 5% EtOH/PBS [2]: >4; MBEC-Biofilm Inhibition, With 0.1% w/v compound 9 in PBS [2]: >4 |
